Measured values from patent US7811820B2, “Smooth muscle cell differentiation with CRP, SRF and GATA factors” (Baylor College of Medicine, priority 2003, dated 2010).
“Also recorded” adds a separate entry of the source.

Assays:
Assay type in all cases: cell-based, monkey
[1] = test system: CRP2 nuclear localization in CV1 cells; assay: Indirect immunofluorescence of V5 epitope-tagged CRP2 localization in transfected CV1 cells; conditions: for CRP2 accumulation in the nucleus: after one hour of treatment; for Nuclear localization of epitope-tagged CRP2: cytochalasin D 5 μg/ml, latrunculin B not shown; for CRP2 accumulation / localization in the nucleus: summary statement, no concentration given
Method: (§1) FIGS. 9A-9B show signaling mechanisms involved in CRP2 nuclear localization. In FIG. 9A, there is indirect immunofluorescent analysis of V5 epitope-tagged CRP2 (green) in CV1 cells. Untreated control CV1 cells show global localization of CRP2. […] Fold-activation was determined by comparison to the transfection with empty expression vector in lane 1.
In CV1 fibroblasts, overexpressed wild type CRP2 localizes both in the nucleus and in the cytoplasmic compartments, similar to the subcellular distribution pattern of endogenous CRP2 (Chang et al., 2003). When NLS- or NES-tag is added, the fusion CRP2-NLS or CRP2-NES protein becomes over 90% nuclear- or cytoplasmic-exclusive localized, respectively (FIG. 8A). These reagents allow functional analyses to differentiate nuclear versus cytoplasmic functions of CRP2. […] Nuclear distribution of CRP2 is coincident with reporter gene activation.
(§2) To elucidate the mechanism controlling CRP2 shuttling, the inventors treated transiently transfected monkey CV1 fibroblasts with drugs that either affect cytoskeletal integrity ([…], cytochalasin D, latrunculin B) or are inhibitors of nuclear export (leptomycin B) and looked for changes in the distribution of CRP2.

actin cytoskeleton = assay: Actin cytoskeleton integrity in CV1 cells (rhodamine phalloidin)
Method: as §1, §2

SMA promoter = assay: SMA-luciferase reporter transactivation assay in CV1 cells; conditions: CV1 cells cotransfected with CRP2, SRF and GATA6, drug added 12 h after cotransfection, lysates 6-24 h post-drug
SM22α promoter = SM22α promoter luciferase reporter assay in CV1 cells

SMILES	CRP2 accumulation in the nucleus [1]	Nuclear localization of epitope-tagged CRP2 [1]	dissolution of the actin cytoskeleton (actin cytoskeleton)	transfected CV1 cells displaying CRP2 accumulation in the nucleus ([1]; 2 hr of 10 μg/ml treatment) [%]	CRP2 accumulation / localization in the nucleus [1]	cells with CRP2 nuclear localization ([1]; 10 μM in growth medium of transfected CV1 fibroblasts) [%]	SMA gene activation / SMA-Luc reporter activity after drug treatment (SMA promoter)	SMA gene activation / SMA-Luc reporter activity after drug treatment (SMA promoter; listed as Y-26732)	SM22α promoter activity after drug treatment (SM22α promoter)
C=C1[C@@H](C)[C@H]2[C@H](Cc3ccccc3)NC(=O)[C@]23[C@H](OC(C)=O)/C=C/[C@@](C)(O)C(=O)[C@@H](C)C/C=C/[C@H]3[C@@H]1O [cytochalasin D]	accumulate in the nucleus	observed	completely dissolved the actin cytoskeleton within one hour						
CCC(=C/[C@H](C)C/C=C/C(C)=C/[C@@H](C)C(=O)[C@@H](C)[C@H](O)[C@@H](C)C/C(C)=C/C(=O)O)/C=C/[C@@H]1OC(=O)C=C[C@@H]1C [leptomycin B]	accumulate in the nucleus			82	induced CRP2 accumulation in the nucleus				
C/C1=C/C(=O)O[C@@H]2C[C@@H](CC[C@H](C)/C=C\CC1)O[C@@](O)([C@@H]1CSC(=O)N1)C2 [latrunculin B]		observed	completely dissolved the actin cytoskeleton within one hour						
C[C@@H](N)[C@H]1CC[C@H](C(=O)Nc2ccncc2)CC1 [Y-27632]	accumulate in the nucleus				facilitated CRP2 nuclear localization	68	further upregulates; also recorded: further up-regulated	increases	further up-regulated
